{"source": "patent US11419827B2", "about": "“Protecting tissue and mitigating injury from radiation-induced ionizing events” (Humanetics Corporation, priority 2017, dated 2022)", "key": {"p53 and γH2AX": {"system": "p53 and γH2AX", "assay": "Western blot for DNA damage markers p53 and γH2AX in heart and lung tissue of mice exposed to 6 Gy high LET proton radiation", "format": "in vivo", "details": "200 mg/kg s.c. 24 hours before 6 Gy high LET proton radiation, tissues harvested 3 days later, vs tubulin control", "description": "FIG. 2 is a western blot with heart and lung tissue extracted from animals that were treated with or without genistein [200 mg/kg subcutaneously (s.c.)] and then exposed to 6 Gy high LET proton radiation 24 hours after treatment. The indicated tissues were harvested 3 days later. The levels of p53 (a DNA damage response protein) and γH2AX (a direct measurement of DNA damage) were measured and compared to a tubulin control.\n(§1) Mice were prophylactically administered genistein (200 mg/kg) via s.c. injection 24 hours prior to radiation exposure. Appropriate sham radiation and vehicle controls were applied. Radiation exposures of 6 Gy with high-LET protons [50 MeV fully modulated spread-out Bragg peak (SOBP)] were utilized. The following parameters were examined:\nDNA damage in tissues—Lungs and heart were surgically removed and subjected to thin-slice sectioning, followed by western blot analysis for the DNA damage markers p53 and γH2AX (an effective measure of proton radiation-induced biological damage; see, Liu et al., Radiation Oncology 91(5):1081-1089, 2015), as well as tubulin control."}, "[1]": {"system": "CXCL1 cytokine, G-CSF, TNFα", "assay": "Multi-cytokine LUMINEX panel on peripheral blood of mice exposed to 6 Gy high LET proton radiation", "format": "in vivo", "details": "200 mg/kg s.c. 24 hours before 6 Gy high LET proton radiation; blood taken 3, 6 and 12 days after exposure", "description": "FIGS. 4A, 4B, and 4C are graphs plotting the levels of CXCL1 cytokine (FIG. 4A), granulocyte colony stimulating factor (G-CSF; FIG. 4B), and tumor necrosis factor alpha (TNFα; FIG. 4C) in blood from mice injected with 200 mg/kg genistein (s.c.) 24 hours prior to exposure to 6 Gy high LET proton radiation. In these experiments, blood was drawn from mice on the indicated days following radiation exposure, and the levels of cytokines were assayed.\nas §1\nCytokine response—Peripheral blood was taken from the treated and irradiated mice 3, 6, and 12 days after radiation exposure, and assessed using a multi-cytokine LUMINEX® panel to evaluate the global inflammatory cytokine response."}, "Human cardiomyocytes": {"system": "Human cardiomyocytes", "assay": "Live cell counts of human cardiomyocytes after mixed field (32% neutron, 68% gamma) radiation", "format": "cell-based", "details": "treated 24 hours before exposure to various doses of MF radiation; counts 3 days after exposure", "description": "FIG. 5 is a graph plotting the number of live human cardiomyocytes after treatment of the cells with genistein 24 hours before exposure to various doses of mixed field (32% neutron, 68% gamma) radiation (henceforth referred to as “MF” radiation). Live cell counts were performed 3 days after radiation exposure.\nHuman cardiomyocytes were treated with genistein 24 hours before exposure to various doses of mixed field (“MF,” 32% neutron, 68% gamma) radiation. Live cell counts were performed 3 days after radiation exposure."}, "[2]": {"details": "in several pharmaceutically acceptable solvents; cited from earlier work"}}, "note": "Entries after “also recorded” stand apart in the source; their conditions may differ.", "data": [{"compound": "O=c1c(-c2ccc(O)cc2)coc2cc(O)cc(O)c12", "note": "[genistein, 5,7-dihydroxy-3-(4-hydroxyphenyl)-chromen-4-one]", "values": [{"measurement": "p53 levels in response to radiation exposure", "setting": "p53 and γH2AX", "result": "prevented a marked increase in p53 levels"}, {"measurement": "p53 levels in response to radiation exposure", "setting": "p53 and γH2AX; listed as Genistein", "result": "ameliorated the effects of proton radiation"}, {"measurement": "γH2AX levels", "setting": "p53 and γH2AX; listed as Genistein", "result": "lower levels of γH2AX; also recorded: ameliorated the effects of proton radiation"}, {"measurement": "expression of CXCL1 cytokine in blood", "setting": "[1]", "result": "mitigated the effects of proton radiation"}, {"measurement": "expression of G-CSF in blood", "setting": "[1]", "result": "mitigated the effects of proton radiation"}, {"measurement": "expression of TNFα in blood", "setting": "[1]", "result": "mitigated the effects of proton radiation"}, {"measurement": "survival (live cell counts) after MF radiation", "setting": "Human cardiomyocytes", "result": "increased survival"}, {"measurement": "solubility", "setting": "[2]", "result": "low to virtually no solubility"}]}]}
